In patent US12065445B2, “CDK2 inhibitors and methods of using the same” (Cedilla Therapeutics, Inc., priority 2021, dated 2024):

Legend:
Kuramochi cells = experiment: BrdU Cell Proliferation Assay; format: cell-based; conditions: read-out: BrdU - KURAMOCHI.1: IC50
In short: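 Signal is 450 nm absorbance from a peroxidase anti-BrdU ELISA after a 1-hour BrdU label, background-subtracted and normalized to DMSO-treated wells. Kuramochi cells (2,000 per well) had been exposed to compound for 4 days. Dosing used a 10-point dose response in 3-fold steps.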

[1] = system: Kuramochi cells labeled with mApple-H2B; experiment: IncuCyte Cell Proliferation Assay; format: cell-based; conditions: 72 h
In short: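 GI50 came from dose-response fits of cell-count fold change between 0 and 72 h, normalized to DMSO controls. Counts were fluorescent nuclei from live-cell images over a 10-point, ½ log series starting at 20 μM.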

Row | Compound | IC50 (Kuramochi cells) | IC50 [1]
1 | CNC(=O)[C@@H](NC(=O)[C@@H]1CN(C(=O)c2sc(C(C)C)nc2C)CC12CN(C(=O)[C@H]1CC1(C)C)C2)[C@@H](C)OCC1CCCCC1 [I-227A] | > 10 µM | > 20 µM
2 | C[C@@H](OCC1CCCCC1)[C@H](NC(=O)C1CN(C(=O)c2cnn(Cc3ccccc3)c2)CC12CN(C(=O)[C@H]1CC1(C)C)C2)C(=O)N1CCCC(CO)C1 (stereo partly shown) [I-105] | ≤ 0.5 µM | ≤ 0.5 µM
3 | CNC(=O)[C@@H](NC(=O)[C@@H]1CN(C(=O)c2cncs2)CC12CN(C(=O)[C@H]1CC1(C)C)C2)[C@@H](C)OC1C2CC3CC(C2)CC1C3 (stereo partly shown) [I-463] | 0.5 to 5 µM | 0.5 to 5 µM
4 | C[C@@H](OCC1CCC(F)(F)CC1)[C@H](NC(=O)[C@H]1CN(C(=O)c2cnn(Cc3ccc(F)cc3)c2)CC12CN(C(=O)[C@H]1CC1(C)C)C2)C(=O)N1CCC(F)(F)CC1 [I-164B] | 0.5 to 5 µM | 0.5 to 5 µM
5 | C[C@@H](OCC1CCCCC1)[C@H](NC(=O)[C@@H]1CN(C(=O)c2cncs2)CC12CN(C(=O)[C@H]1CC1(C)C)C2)C(=O)N1CCOCC1 [I-198] | ≤ 0.5 µM | ≤ 0.5 µM
6 | CO[C@H]1COCC[C@H]1NC(=O)[C@H]1CN(C(=O)c2cnn(Cc3ccccc3)c2)CC12CN(C(=O)[C@H]1CC1(C)C)C2 [I-134B] | > 10 µM | > 20 µM
7 | C[C@@H](OCC12CCC(CC1)OC2)[C@H](NC(=O)[C@@H]1CN(C(=O)c2cncs2)CC12CN(C(=O)[C@H]1CC1(C)C)C2)C(=O)N1CCC2(CC1)COC2 [I-336] | > 10 µM | 5 to 20 µM
8 | C[C@@H](OCC1CCC(F)(F)CC1)[C@H](NC(=O)[C@@H]1CN(C(=O)c2cncs2)CC12CN(C(=O)[C@H]1CC1(C)C)C2)C(=O)N1CCC(C)(C)CC1 [I-386] | ≤ 0.5 µM | ≤ 0.5 µM
9 | CNC(=O)C(NC(=O)[C@@H]1CN(C(=O)c2cn[nH]c2)CC12CN(C(=O)[C@H]1CC1(C)C)C2)C(O)Cc1ccccc1 (stereo partly shown) [I-298] | > 10 µM | > 20 µM
10 | COC[C@H]1CCCN(C(=O)[C@@H](NC(=O)[C@@H]2CN(C(=O)c3cncs3)CC23CN(C(=O)C(C)(C)C2CC2)C3)[C@@H](C)OC(C)C2CCC(F)(F)CC2)C1 (stereo partly shown) [I-399] | 0.5 to 5 µM | 0.5 to 5 µM
11 | C[C@@H](OCC12CCC(CC1)CC2)[C@H](NC(=O)[C@@H]1CN(C(=O)c2cncs2)CC12CN(C(=O)[C@H]1CC1(C)C)C2)C(C)(C)O [I-304] | 0.5 to 5 µM | 0.5 to 5 µM
12 | Cc1ccc(CNC(=O)[C@@H]2CN(C(=O)c3cnn(Cc4ccccc4)c3)CC23CN(C(=O)[C@H]2CC2(C)C)C3)nn1 [I-252] | 5 to 10 µM | 5 to 20 µM
13 | COC[C@H]1CCCN(C(=O)CNC(=O)[C@@H]2CN(C(=O)c3cncs3)CC23CN(C(=O)[C@H]2CC2(C)C)C3)C1 [I-323] | > 10 µM | > 20 µM
14 | C[C@@H](OCC1CCCCC1)[C@H](NC(=O)[C@@H]1CN(C(=O)c2cncs2)CC12CN(C(=O)[C@H]1CC1(C)C)C2)C(=O)N1CCNCC1 [I-328] | 0.5 to 5 µM | 0.5 to 5 µM
15 | CNC(=O)[C@@H](NC(=O)[C@@H]1CN(C(=O)c2cnn(Cc3ccccc3)c2)CC12CN(C(=O)[C@H]1CC1(C)C)C2)[C@@H](C)OCC1CCCCCC1 [I-166A] | ≤ 0.5 µM | ≤ 0.5 µM
16 | C[C@@H](OCC1CCOCC1)[C@H](NC(=O)[C@@H]1CN(C(=O)c2cncs2)CC12CN(C(=O)[C@H]1CC1(C)C)C2)C(=O)N1CCC(F)(F)CC1 [I-288] | > 10 µM | 5 to 20 µM
17 | CNC(=O)[C@@H](NC(=O)[C@@H]1CN(C(=O)c2cnn(Cc3ccccc3)c2)CC12CN(C(=O)[C@H]1CC1(C)C)C2)[C@@H](C)OCC1CCCCC1 [I-123A, (S)-6-(1-benzyl-1H-pyrazole-4-carbonyl)-N-((2S,3R)-3-(cyclohexylmethoxy)-1-(methylamino)-1-oxobutan-2-yl)-2-((S)-2,2-dimethylcyclopropane-1-carbonyl)-2,6-diazaspiro[3.4]octane-8-carboxamide] | ≤ 0.5 µM | 0.5 to 5 µM
18 | C[C@@H](OCC1CCCCC1)[C@H](NC(=O)[C@H]1CN(C(=O)c2cnn(Cc3ccccc3)c2)CC12CN(C(=O)[C@H]1CC1(C)C)C2)C(=O)N1CCOCC1 [I-152B] | > 10 µM | 5 to 20 µM
19 | COC1CCN(C(=O)[C@@H](NC(=O)[C@@H]2CN(C(=O)c3cncs3)CC23CN(C(=O)[C@H]2CC2(C)C)C3)[C@@H](C)OCC2CCC(F)(F)CC2)CC1 [I-385] | ≤ 0.5 µM | ≤ 0.5 µM
20 | C[C@@H](OCC1CCC(F)(F)CC1)[C@H](NC(=O)[C@@H]1CN(C(=O)c2cnn(Cc3ccc(F)cc3)c2)CC12CN(C(=O)[C@H]1CC1(C)C)C2)C(=O)N1CCC(F)(F)CC1 [I-164A] | ≤ 0.5 µM | ≤ 0.5 µM
21 | CNC(=O)[C@@H](NC(=O)[C@@H]1CN(C(=O)c2cnn(Cc3ccccc3)c2)CC12CN(C(=O)[C@H]1CC1(C)C)C2)[C@@H](C)N(CC1CCCCC1)C(C)=O [I-273, (S)-6-(1-benzyl-1H-pyrazole-4-carbonyl)-N-((2S,3R)-3-(N-(cyclohexylmethyl)acetamido)-1-(methylamino)-1-oxobutan-2-yl)-2-((S)-2,2-dimethylcyclopropane-1-carbonyl)-2,6-diazaspiro[3.4]octane-8-carboxamide] | > 10 µM | > 20 µM
22 | CNC(=O)[C@@H](NC(=O)[C@@H]1CN(C(=O)c2nncs2)CC12CN(C(=O)[C@H]1CC1(C)C)C2)[C@@H](C)OCC1CCCCC1 [I-246] | 0.5 to 5 µM | 5 to 20 µM
23 | CNC(=O)[C@@H](NC(=O)[C@@H]1CN(C(=O)c2cncs2)CC12CN(C(=O)[C@H]1CC1(C)C)C2)[C@@H](C)OCC12CCC(CC1)CC2 [I-289] | ≤ 0.5 µM | ≤ 0.5 µM
24 | CNC(=O)[C@@H](NC(=O)[C@@H]1CN(C(=O)c2cncs2)CC12CN(C(=O)[C@H]1CC1(C)C)C2)[C@@H](C)OC1CC2CCC1CC2 (stereo partly shown) [I-464] | 0.5 to 5 µM | 0.5 to 5 µM
25 | CC1(C)C[C@@H]1C(=O)N1CC2(CN(C(=O)c3cncs3)C[C@H]2C(=O)N[C@@H](COCC2CCCCC2)C(=O)N2CCCCC2)C1 [I-286] | 0.5 to 5 µM | 0.5 to 5 µM
26 | C[C@@H](OCC1CCCCC1)[C@H](NC(=O)C1CN(C(=O)C2CCC(=O)NC2)CC12CN(C(=O)[C@H]1CC1(C)C)C2)C(=O)N1CCCCC1 (stereo partly shown) [I-265] | > 10 µM | > 20 µM
